Data taken from the supplement of paper PMC11424490.

Columns and labels:
[1] = tested on: NCI-H2122; assay: combination cScore with adagrasib (Bliss gap around IC50) (%PoC); higher = stronger additive effect
Method: (§1)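 Combination screen of 179 inhibitors with the KRAS G12C inhibitor adagrasib (MRTX849) in dose matrices, CellTiter-Glo readout in NCI-H2122 (72 h), SW837 (144 h) and NCI-H358 cells. The cScore is the mean Bliss-independence gap (expected minus observed viability, in %PoC) over a 3x3 field around the IC50s of both drugs. Positive means additive, and >~10 is stated as clear additive.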

[2] = tested on: SW837; assay: as above
Method: as §1

Nc1nc(Cl)nc2c1ncn2[C@@H]1O[C@H](CO)[C@@H](O)[C@@H]1F [Clofarabine] + C=C(F)C(=O)N1CCN(c2nc(OC[C@@H]3CCCN3C)nc3c2CCN(c2cccc4cccc(Cl)c24)C3)C[C@@H]1CC#N [adagrasib]
combination cScore with adagrasib [1]: -3.89 | combination cScore with adagrasib [2]: 1.46

O=C(c1ccc(F)c(F)c1Nc1ccc(I)cc1F)N1CC(O)([C@@H]2CCCCN2)C1 [Cobimetinib] + C=C(F)C(=O)N1CCN(c2nc(OC[C@@H]3CCCN3C)nc3c2CCN(c2cccc4cccc(Cl)c24)C3)C[C@@H]1CC#N [adagrasib]
combination cScore with adagrasib [1]: 2.78 | combination cScore with adagrasib [2]: 13.2

Nc1ccn([C@@H]2O[C@H](CO)[C@@H](O)[C@@H]2O)c(=O)n1 [Cytarabin] + C=C(F)C(=O)N1CCN(c2nc(OC[C@@H]3CCCN3C)nc3c2CCN(c2cccc4cccc(Cl)c24)C3)C[C@@H]1CC#N [adagrasib]
combination cScore with adagrasib [1]: -0.23 | combination cScore with adagrasib [2]: 6.75

CC(C)(C)c1nc(-c2cccc(NS(=O)(=O)c3c(F)cccc3F)c2F)c(-c2ccnc(N)n2)s1 [Dabrafenib] + C=C(F)C(=O)N1CCN(c2nc(OC[C@@H]3CCCN3C)nc3c2CCN(c2cccc4cccc(Cl)c24)C3)C[C@@H]1CC#N [adagrasib]
combination cScore with adagrasib [1]: -9.32 | combination cScore with adagrasib [2]: -0.35

Nc1ncn([C@H]2C[C@H](O)[C@@H](CO)O2)c(=O)n1 [Decitabine] + C=C(F)C(=O)N1CCN(c2nc(OC[C@@H]3CCCN3C)nc3c2CCN(c2cccc4cccc(Cl)c24)C3)C[C@@H]1CC#N [adagrasib]
combination cScore with adagrasib [1]: 3.82 | combination cScore with adagrasib [2]: -0.47

C[C@@H]1C[C@H]2[C@@H]3CCC4=CC(=O)C=C[C@]4(C)[C@@]3(F)[C@@H](O)C[C@]2(C)[C@@]1(O)C(=O)CO [Dexamethasone] + C=C(F)C(=O)N1CCN(c2nc(OC[C@@H]3CCCN3C)nc3c2CCN(c2cccc4cccc(Cl)c24)C3)C[C@@H]1CC#N [adagrasib]
combination cScore with adagrasib [1]: -4.66 | combination cScore with adagrasib [2]: -0.93

CC(=O)O[C@@]12CO[C@@H]1C[C@H](O)[C@@]1(C)C(=O)[C@H](O)C3=C(C)[C@@H](OC(=O)[C@H](O)[C@@H](NC(=O)OC(C)(C)C)c4ccccc4)C[C@@](O)([C@@H](OC(=O)c4ccccc4)[C@H]21)C3(C)C [Docetaxel] + C=C(F)C(=O)N1CCN(c2nc(OC[C@@H]3CCCN3C)nc3c2CCN(c2cccc4cccc(Cl)c24)C3)C[C@@H]1CC#N [adagrasib]
combination cScore with adagrasib [1]: 3.05 | combination cScore with adagrasib [2]: 0.74

COc1cccc2c1C(=O)c1c(O)c3c(c(O)c1C2=O)C[C@@](O)(C(=O)CO)C[C@@H]3O[C@H]1C[C@H](N)[C@H](O)[C@H](C)O1 [Doxorubicin] + C=C(F)C(=O)N1CCN(c2nc(OC[C@@H]3CCCN3C)nc3c2CCN(c2cccc4cccc(Cl)c24)C3)C[C@@H]1CC#N [adagrasib]
combination cScore with adagrasib [1]: -0.16 | combination cScore with adagrasib [2]: 4.49

CN(NC(=O)CC(=O)NN(C)C(=S)c1ccccc1)C(=S)c1ccccc1 [Elesclomol] + C=C(F)C(=O)N1CCN(c2nc(OC[C@@H]3CCCN3C)nc3c2CCN(c2cccc4cccc(Cl)c24)C3)C[C@@H]1CC#N [adagrasib]
combination cScore with adagrasib [1]: 2.19 | combination cScore with adagrasib [2]: 6.34

CNC(=O)c1ccc(N2C(=S)N(c3ccc(C#N)c(C(F)(F)F)c3)C(=O)C2(C)C)cc1F [Enzalutamide] + C=C(F)C(=O)N1CCN(c2nc(OC[C@@H]3CCCN3C)nc3c2CCN(c2cccc4cccc(Cl)c24)C3)C[C@@H]1CC#N [adagrasib]
combination cScore with adagrasib [1]: 4.58 | combination cScore with adagrasib [2]: 7.72

COc1cc([C@@H]2c3cc4c(cc3[C@@H](O[C@@H]3O[C@@H]5CO[C@@H](C)O[C@H]5[C@H](O)[C@H]3O)[C@H]3COC(=O)[C@H]23)OCO4)cc(OC)c1O [Etoposide] + C=C(F)C(=O)N1CCN(c2nc(OC[C@@H]3CCCN3C)nc3c2CCN(c2cccc4cccc(Cl)c24)C3)C[C@@H]1CC#N [adagrasib]
combination cScore with adagrasib [1]: 2.33 | combination cScore with adagrasib [2]: -0.11

CO[C@H]1C[C@@H]2CC[C@@H](C)[C@@](O)(O2)C(=O)C(=O)N2CCCC[C@H]2C(=O)O[C@H]([C@H](C)C[C@@H]2CC[C@@H](OCCO)[C@H](OC)C2)CC(=O)[C@H](C)/C=C(\C)[C@@H](O)[C@@H](OC)C(=O)[C@H](C)C[C@H](C)/C=C/C=C/C=C/1C [Everolimus] + C=C(F)C(=O)N1CCN(c2nc(OC[C@@H]3CCCN3C)nc3c2CCN(c2cccc4cccc(Cl)c24)C3)C[C@@H]1CC#N [adagrasib]
combination cScore with adagrasib [1]: -6.03 | combination cScore with adagrasib [2]: 1.15

CN1CC[C@H](c2c(O)cc(O)c3c(=O)cc(-c4ccccc4Cl)oc23)[C@H](O)C1 [Flavopiridol] + C=C(F)C(=O)N1CCN(c2nc(OC[C@@H]3CCCN3C)nc3c2CCN(c2cccc4cccc(Cl)c24)C3)C[C@@H]1CC#N [adagrasib]
combination cScore with adagrasib [1]: -0.29 | combination cScore with adagrasib [2]: 2.43

Nc1nc(F)nc2c1ncn2[C@@H]1O[C@H](CO)[C@@H](O)[C@@H]1O [Fludarabine] + C=C(F)C(=O)N1CCN(c2nc(OC[C@@H]3CCCN3C)nc3c2CCN(c2cccc4cccc(Cl)c24)C3)C[C@@H]1CC#N [adagrasib]
combination cScore with adagrasib [1]: -6.95 | combination cScore with adagrasib [2]: 2.57

O=c1[nH]cc(F)c(=O)[nH]1 [Fluorouracil (5-FU)] + C=C(F)C(=O)N1CCN(c2nc(OC[C@@H]3CCCN3C)nc3c2CCN(c2cccc4cccc(Cl)c24)C3)C[C@@H]1CC#N [adagrasib]
combination cScore with adagrasib [1]: 9.62 | combination cScore with adagrasib [2]: -0.87

C[C@]12CC[C@@H]3c4ccc(O)cc4C[C@@H](CCCCCCCCC[S+]([O-])CCCC(F)(F)C(F)(F)F)[C@H]3[C@@H]1CC[C@@H]2O (stereo partly specified) [Fulvestrant] + C=C(F)C(=O)N1CCN(c2nc(OC[C@@H]3CCCN3C)nc3c2CCN(c2cccc4cccc(Cl)c24)C3)C[C@@H]1CC#N [adagrasib]
combination cScore with adagrasib [1]: 3.46 | combination cScore with adagrasib [2]: 2.82

CN(C)c1ccccc1CN1CCCN(Cc2ccccc2N(C)C)C1c1ccncc1 [GANT61] + C=C(F)C(=O)N1CCN(c2nc(OC[C@@H]3CCCN3C)nc3c2CCN(c2cccc4cccc(Cl)c24)C3)C[C@@H]1CC#N [adagrasib]
combination cScore with adagrasib [1]: 7.28 | combination cScore with adagrasib [2]: -0.37

N#CN=C(NCCCCCCOc1ccc(Cl)cc1)Nc1ccncc1 [GMX1778] + C=C(F)C(=O)N1CCN(c2nc(OC[C@@H]3CCCN3C)nc3c2CCN(c2cccc4cccc(Cl)c24)C3)C[C@@H]1CC#N [adagrasib]
combination cScore with adagrasib [1]: -7.75 | combination cScore with adagrasib [2]: 2.82

CCOC(=O)CCNc1cc(N2CCc3ccccc3CC2)nc(-c2ccccn2)n1 [GSK-J4] + C=C(F)C(=O)N1CCN(c2nc(OC[C@@H]3CCCN3C)nc3c2CCN(c2cccc4cccc(Cl)c24)C3)C[C@@H]1CC#N [adagrasib]
combination cScore with adagrasib [1]: 17.9 | combination cScore with adagrasib [2]: 0.593

CC(C)c1cc(-c2n[nH]c(=O)n2-c2ccc3c(ccn3C)c2)c(O)cc1O [Ganetespib] + C=C(F)C(=O)N1CCN(c2nc(OC[C@@H]3CCCN3C)nc3c2CCN(c2cccc4cccc(Cl)c24)C3)C[C@@H]1CC#N [adagrasib]
combination cScore with adagrasib [1]: -3.01 | combination cScore with adagrasib [2]: 4.14

Nc1ccn([C@@H]2O[C@H](CO)[C@@H](O)C2(F)F)c(=O)n1 [Gemcitabine] + C=C(F)C(=O)N1CCN(c2nc(OC[C@@H]3CCCN3C)nc3c2CCN(c2cccc4cccc(Cl)c24)C3)C[C@@H]1CC#N [adagrasib]
combination cScore with adagrasib [1]: -4.78 | combination cScore with adagrasib [2]: -2.8

COc1ncc(-c2nc3c(n2C(C)C)[C@H](c2ccc(Cl)cc2)N(c2cc(Cl)cn(C)c2=O)C3=O)c(OC)n1 [HDM-201] + C=C(F)C(=O)N1CCN(c2nc(OC[C@@H]3CCCN3C)nc3c2CCN(c2cccc4cccc(Cl)c24)C3)C[C@@H]1CC#N [adagrasib]
combination cScore with adagrasib [1]: 1.48 | combination cScore with adagrasib [2]: 3.06

CC(=O)[C@]1(O)Cc2c(O)c3c(c(O)c2[C@@H](O[C@H]2C[C@H](N)[C@H](O)[C@H](C)O2)C1)C(=O)c1ccccc1C3=O [Idarubicin] + C=C(F)C(=O)N1CCN(c2nc(OC[C@@H]3CCCN3C)nc3c2CCN(c2cccc4cccc(Cl)c24)C3)C[C@@H]1CC#N [adagrasib]
combination cScore with adagrasib [1]: 4.03 | combination cScore with adagrasib [2]: 2.73

Cc1ccc(NC(=O)c2ccc(CN3CCN(C)CC3)cc2)cc1Nc1nccc(-c2cccnc2)n1 [Imatinib] + C=C(F)C(=O)N1CCN(c2nc(OC[C@@H]3CCCN3C)nc3c2CCN(c2cccc4cccc(Cl)c24)C3)C[C@@H]1CC#N [adagrasib]
combination cScore with adagrasib [1]: -0.92 | combination cScore with adagrasib [2]: -2.11

CC(C)NC[C@@H](C(=O)N1CCN(c2ncnc3c2[C@H](C)C[C@H]3O)CC1)c1ccc(Cl)cc1 [Ipatasertib] + C=C(F)C(=O)N1CCN(c2nc(OC[C@@H]3CCCN3C)nc3c2CCN(c2cccc4cccc(Cl)c24)C3)C[C@@H]1CC#N [adagrasib]
combination cScore with adagrasib [1]: 1.14 | combination cScore with adagrasib [2]: 6.57

O=C(/C=C\n1cnc(-c2cc(C(F)(F)F)cc(C(F)(F)F)c2)n1)NNc1cnccn1 [KPT-330] + C=C(F)C(=O)N1CCN(c2nc(OC[C@@H]3CCCN3C)nc3c2CCN(c2cccc4cccc(Cl)c24)C3)C[C@@H]1CC#N [adagrasib]
combination cScore with adagrasib [1]: 8.01 | combination cScore with adagrasib [2]: 3.48

CN[C@@H](C)C(=O)N[C@H](C(=O)N1CCC[C@H]1c1nc(C(=O)c2ccc(F)cc2)cs1)C1CCCCC1 [LCL161] + C=C(F)C(=O)N1CCN(c2nc(OC[C@@H]3CCCN3C)nc3c2CCN(c2cccc4cccc(Cl)c24)C3)C[C@@H]1CC#N [adagrasib]
combination cScore with adagrasib [1]: -1.85 | combination cScore with adagrasib [2]: 1.58

COc1ccccc1-c1cc(Nc2cccc(CS(N)(=O)=O)c2)ncn1 [LDC-067] + C=C(F)C(=O)N1CCN(c2nc(OC[C@@H]3CCCN3C)nc3c2CCN(c2cccc4cccc(Cl)c24)C3)C[C@@H]1CC#N [adagrasib]
combination cScore with adagrasib [1]: 5.11 | combination cScore with adagrasib [2]: 3.49
